Test results as given in US20250122183A1 (Pfizer Inc., priority 2023, published 2025).

Assays:
Assay type in all cases: biochemical
[1] = biological target: KAT6A Full length enzyme (Homo sapiens (Human), UniProt Q92794); experiment: KAT6A assay (SAMDI-MS acetylation of H3 1-21 peptide); conditions: Morrison equation fit; replicate number in parentheses; read-out: KAT6A Ki (nM) (replicate number)
[2] = biological target: KAT7+JADE1+EAF6+ING5 4 protein complex (Homo sapiens (Human), UniProt O95251); experiment: KAT7 JADE1 assay (SAMDI-MS acetylation of H3 1-21 peptide); conditions: Morrison equation fit; replicate number in parentheses; read-out: KAT7 JADE1 Ki (nM) (replicate number)
[3] = biological target: KAT8 Full length enzyme (Homo sapiens (Human), UniProt Q9H7Z6); experiment: KAT8 assay (SAMDI-MS acetylation of H3 1-21 peptide); conditions: Morrison equation fit; replicate number in parentheses; read-out: KAT8 Ki (nM) (replicate number)
[4] = biological target: KAT5 Full length enzyme (Homo sapiens (Human), UniProt Q92993); experiment: KAT5 assay (SAMDI-MS acetylation of H4 1-21 peptide); conditions: Morrison equation fit; replicate number in parentheses; read-out: KAT5 Ki (nM) (replicate number)
KAT5 Full length enzyme, sequence (Q92993 whole entry): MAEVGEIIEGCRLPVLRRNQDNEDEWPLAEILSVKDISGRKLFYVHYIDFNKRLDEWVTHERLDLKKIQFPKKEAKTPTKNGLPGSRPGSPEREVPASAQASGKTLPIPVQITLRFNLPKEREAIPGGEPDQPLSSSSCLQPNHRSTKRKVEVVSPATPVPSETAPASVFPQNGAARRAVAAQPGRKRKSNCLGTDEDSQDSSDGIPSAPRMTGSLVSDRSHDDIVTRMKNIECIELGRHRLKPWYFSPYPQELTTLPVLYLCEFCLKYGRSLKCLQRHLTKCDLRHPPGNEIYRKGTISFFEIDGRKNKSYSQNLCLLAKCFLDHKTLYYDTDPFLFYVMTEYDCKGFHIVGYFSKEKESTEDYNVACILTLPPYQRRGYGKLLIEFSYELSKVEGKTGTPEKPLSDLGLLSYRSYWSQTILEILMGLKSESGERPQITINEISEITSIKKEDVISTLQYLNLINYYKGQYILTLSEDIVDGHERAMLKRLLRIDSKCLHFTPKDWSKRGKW

KAT6A Full length enzyme, sequence (Q92794 other isoform, or with tags, fused parts or gaps): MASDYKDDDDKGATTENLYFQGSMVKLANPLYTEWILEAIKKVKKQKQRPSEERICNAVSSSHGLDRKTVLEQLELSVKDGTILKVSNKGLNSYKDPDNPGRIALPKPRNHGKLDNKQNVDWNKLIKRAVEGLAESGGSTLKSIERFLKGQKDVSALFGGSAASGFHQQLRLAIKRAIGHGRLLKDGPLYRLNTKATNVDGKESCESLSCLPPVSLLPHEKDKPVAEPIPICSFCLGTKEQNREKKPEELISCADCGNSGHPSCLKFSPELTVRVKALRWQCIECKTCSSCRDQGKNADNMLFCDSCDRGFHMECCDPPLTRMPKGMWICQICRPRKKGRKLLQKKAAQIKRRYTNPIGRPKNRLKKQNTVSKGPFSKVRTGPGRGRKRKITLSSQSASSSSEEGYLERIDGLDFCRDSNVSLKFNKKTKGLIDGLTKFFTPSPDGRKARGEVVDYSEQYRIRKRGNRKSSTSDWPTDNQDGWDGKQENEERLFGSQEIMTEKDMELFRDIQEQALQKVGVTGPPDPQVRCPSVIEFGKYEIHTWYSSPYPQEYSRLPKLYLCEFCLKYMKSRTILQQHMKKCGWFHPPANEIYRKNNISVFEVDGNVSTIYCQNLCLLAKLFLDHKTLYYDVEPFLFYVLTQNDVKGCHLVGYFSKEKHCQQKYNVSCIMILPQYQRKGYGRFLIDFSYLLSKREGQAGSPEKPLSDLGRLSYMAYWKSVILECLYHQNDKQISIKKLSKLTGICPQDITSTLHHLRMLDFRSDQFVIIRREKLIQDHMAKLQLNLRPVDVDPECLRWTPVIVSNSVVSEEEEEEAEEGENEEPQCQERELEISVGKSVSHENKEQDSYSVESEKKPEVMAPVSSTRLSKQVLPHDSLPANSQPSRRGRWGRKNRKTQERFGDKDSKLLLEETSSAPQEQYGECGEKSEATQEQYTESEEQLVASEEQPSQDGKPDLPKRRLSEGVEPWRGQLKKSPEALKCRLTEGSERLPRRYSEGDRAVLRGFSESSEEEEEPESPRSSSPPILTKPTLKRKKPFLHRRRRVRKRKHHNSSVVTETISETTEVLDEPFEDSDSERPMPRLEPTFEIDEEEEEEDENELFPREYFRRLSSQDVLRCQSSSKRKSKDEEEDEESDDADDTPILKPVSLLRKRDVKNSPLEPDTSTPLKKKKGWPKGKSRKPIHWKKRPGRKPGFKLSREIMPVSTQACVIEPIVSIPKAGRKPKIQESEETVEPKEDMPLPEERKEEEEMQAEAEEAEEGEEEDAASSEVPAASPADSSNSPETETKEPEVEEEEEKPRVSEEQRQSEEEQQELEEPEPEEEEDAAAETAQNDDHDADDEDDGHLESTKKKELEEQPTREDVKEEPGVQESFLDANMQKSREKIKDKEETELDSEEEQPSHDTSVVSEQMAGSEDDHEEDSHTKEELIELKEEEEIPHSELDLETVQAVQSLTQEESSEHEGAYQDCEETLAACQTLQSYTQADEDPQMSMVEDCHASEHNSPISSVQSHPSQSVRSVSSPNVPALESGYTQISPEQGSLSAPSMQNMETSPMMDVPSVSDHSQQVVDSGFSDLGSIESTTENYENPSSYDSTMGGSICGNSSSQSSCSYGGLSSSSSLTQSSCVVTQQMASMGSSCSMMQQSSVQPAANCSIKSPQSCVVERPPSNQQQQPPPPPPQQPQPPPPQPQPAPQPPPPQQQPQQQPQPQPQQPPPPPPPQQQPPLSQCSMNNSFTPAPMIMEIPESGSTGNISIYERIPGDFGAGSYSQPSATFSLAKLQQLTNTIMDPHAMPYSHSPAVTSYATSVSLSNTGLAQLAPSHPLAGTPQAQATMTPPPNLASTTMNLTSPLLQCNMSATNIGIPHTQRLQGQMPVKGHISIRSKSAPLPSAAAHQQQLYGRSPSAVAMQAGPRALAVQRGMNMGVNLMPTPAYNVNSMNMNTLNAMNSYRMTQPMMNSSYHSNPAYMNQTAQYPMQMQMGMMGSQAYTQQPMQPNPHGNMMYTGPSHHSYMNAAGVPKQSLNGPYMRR
KAT8 Full length enzyme, sequence (Q9H7Z6 whole entry): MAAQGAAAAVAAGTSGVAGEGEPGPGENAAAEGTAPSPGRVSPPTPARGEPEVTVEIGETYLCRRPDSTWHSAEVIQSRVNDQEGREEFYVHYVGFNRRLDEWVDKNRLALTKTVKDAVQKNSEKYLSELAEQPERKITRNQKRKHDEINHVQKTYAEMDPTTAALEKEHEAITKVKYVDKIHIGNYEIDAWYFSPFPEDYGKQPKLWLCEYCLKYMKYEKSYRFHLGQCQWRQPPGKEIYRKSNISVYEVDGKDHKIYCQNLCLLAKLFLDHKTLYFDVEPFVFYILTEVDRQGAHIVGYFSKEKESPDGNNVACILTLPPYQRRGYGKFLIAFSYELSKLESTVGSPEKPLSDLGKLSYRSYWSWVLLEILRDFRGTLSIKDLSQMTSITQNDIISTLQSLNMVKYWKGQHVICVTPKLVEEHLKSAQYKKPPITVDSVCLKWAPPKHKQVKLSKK

SMILES	Ki [1] [nM]	Ki [2] [nM]	Ki [3] [nM]	Ki [4] [nM]
COc1cc2c(NS(=O)(=O)c3c(OC)cc(-c4ccn(C)n4)cc3OC)noc2cc1Nc1cc(C2CC2C)n[nH]1 (single isomer, unassigned) [Example 242, 2,6-dimethoxy-N-(5-methoxy-6-{[3-(2-methylcyclopropyl)-1 H-pyrazol-5-yl]amino}-1,2-benzoxazol-3-yl)-4-(1-methyl-1H-pyrazol-3-yl)benzene-1-sulfonamide]	0.9	9.2	439	34
COc1cc2c(NS(=O)(=O)c3c(OC)cc(-c4cccnc4)cc3OC)noc2cc1Nc1cc(C2CC2)n[nH]1 [Example 07, N-{6-[(3-cyclopropyl-1H-pyrazol-5-yl)amino]-5-methoxy-1,2-benzoxazol-3-yl}-2,6-dimethoxy-4-(pyridin-3-yl)benzene-1-sulfonamide]	0.6	4.2	457	53.6
COc1cc2c(NS(=O)(=O)c3c(OC)cc(-c4ncco4)cc3OC)noc2cc1Nc1cc(C2CC2)n[nH]1 [Example 08, N-{6-[(3-cyclopropyl-1H-pyrazol-5-yl)amino]-5-methoxy-1,2-benzoxazol-3-yl}-2,6-dimethoxy-4-(1,3-oxazol-2-yl)benzene-1-sulfonamide]	1.2	12.8	1620	46.9
COc1cccc(OC)c1S(=O)(=O)Nc1noc2cc(NC3CCC3)cc(OC)c12 [Example 10, N-[6-(cyclobutylamino)-4-methoxy-1,2-benzoxazol-3-yl]-2,6-dimethoxybenzene-1-sulfonamide]	3.1	727	11500	11800
COc1cccc(OC)c1S(=O)(=O)Nc1noc2cc(N[C@H]3CCOC3)cc(OC)c12 [Example 14, 2,6-dimethoxy-N-(4-methoxy-6-{[(3S)-oxolan-3-yl]amino}-1,2-benzoxazol-3-yl)benzene-1-sulfonamide]	10.1	> 2340	> 16300	44900
COc1cccc(OC)c1S(=O)(=O)Nc1noc2cc(Nc3ccon3)cc(OC)c12 [Example 16, 2,6-dimethoxy-N-{4-methoxy-6-[(1,2-oxazol-3-yl)amino]-1,2-benzoxazol-3-yl}benzene-1-sulfonamide]	0.2	702	2250	1650
COc1cccc(OC)c1S(=O)(=O)Nc1noc2cc(Nc3ccccn3)cc(OC)c12 [Example 18, 2,6-dimethoxy-N-{4-methoxy-6-[(pyridin-2-yl)amino]-1,2-benzoxazol-3-yl}benzene-1-sulfonamide]	1	245	5960	5420
COc1cccc(OC)c1S(=O)(=O)Nc1noc2cc(Nc3cccnn3)cc(OC)c12 [Example 19, 2,6-dimethoxy-N-{4-methoxy-6-[(pyridazin-3-yl)amino]-1,2-benzoxazol-3-yl}benzene-1-sulfonamide]	30.8	516	> 16300	15700
COc1cccc(OC)c1S(=O)(=O)Nc1noc2cc(Nc3ncccn3)cc(OC)c12 [Example 20, 2,6-dimethoxy-N-{4-methoxy-6-[(pyrimidin-2-yl)amino]-1,2-benzoxazol-3-yl}benzene-1-sulfonamide]	5.3	1540	14600	9380
COc1cc2c(NS(=O)(=O)c3c(OC)cccc3OC)noc2cc1Nc1cc(C(C)(F)F)n[nH]1 [Example 66, N-(6-{[3-(1,1-difluoroethyl)-1H-pyrazol-5-yl]amino}-5-methoxy-1,2-benzoxazol-3-yl)-2,6-dimethoxybenzene-1-sulfonamide]	10.7	130	> 13000	871
CCOc1cc(C)c(F)cc1S(=O)(=O)Nc1noc2cc(Nc3cc(C4CC4)n[nH]3)c(F)c(OC)c12 [Example 70, N-{6-[(3-cyclopropyl-1H-pyrazol-5-yl)amino]-5-fluoro-4-methoxy-1,2-benzoxazol-3-yl}-2-ethoxy-5-fluoro-4-methylbenzene-1-sulfonamide]	1.9	16.4	3880	280
CCc1cc(Nc2cc3onc(NS(=O)(=O)c4c(OC)cccc4OC)c3cc2OC)nn1C [Example 73, N-{6-[(5-ethyl-1-methyl-1H-pyrazol-3-yl)amino]-5-methoxy-1,2-benzoxazol-3-yl}-2,6-dimethoxybenzene-1-sulfonamide]	0.7	31.3	4330	287
CCn1nc(Nc2cc3onc(NS(=O)(=O)c4c(OC)cccc4OC)c3cc2OC)cc1C [Example 74, N-{6-[(1-ethyl-5-methyl-1H-pyrazol-3-yl)amino]-5-methoxy-1,2-benzoxazol-3-yl}-2,6-dimethoxybenzene-1-sulfonamide]	5.2	483	> 13000	2160
CCn1cnc(Nc2cc3onc(NS(=O)(=O)c4c(OC)cccc4OC)c3cc2OC)c1 [Example 75, N-{6-[(1-ethyl-1H-imidazol-4-yl)amino]-5-methoxy-1,2-benzoxazol-3-yl}-2,6-dimethoxybenzene-1-sulfonamide]	22.3	501	> 11200	2210
CCOc1cc(F)ccc1S(=O)(=O)Nc1noc2cc(Nc3cc(C4CC4)n[nH]3)c(F)c(OC)c12 [Example 76, N-{6-[(3-cyclopropyl-1H-pyrazol-5-yl)amino]-5-fluoro-4-methoxy-1,2-benzoxazol-3-yl}-2-ethoxy-4-fluorobenzene-1-sulfonamide]	11.1	92	> 13000	1160
COc1cccc(OC2CC2)c1S(=O)(=O)Nc1noc2cc(Nc3cc(C4CC4)n[nH]3)c(F)c(OC)c12 [Example 80, 2-(cyclopropyloxy)-N-{6-[(5-cyclopropyl-1H-pyrazol-3-yl)amino]-5-fluoro-4-methoxy-1,2-benzoxazol-3-yl}-6-methoxybenzene-1-sulfonamide]	3.8	32.3	7760	1450
COc1cccc(F)c1S(=O)(=O)Nc1noc2cc(Nc3cc(C4CC4)n[nH]3)c(F)c(OC)c12 [Example 81, N-{6-[(3-cyclopropyl-1H-pyrazol-5-yl)amino]-5-fluoro-4-methoxy-1,2-benzoxazol-3-yl}-2-fluoro-6-methoxybenzene-1-sulfonamide]	3.5	31.6	> 13000	336
COc1cc2c(NS(=O)(=O)c3c(OC)cccc3OC)noc2cc1Nc1cc(C2CCCC2)n[nH]1 [Example 85, N-{6-[(3-cyclopentyl-1H-pyrazol-5-yl)amino]-5-methoxy-1,2-benzoxazol-3-yl}-2,6-dimethoxybenzene-1-sulfonamide]	4.7	33.4	3380	225
COc1cc2c(NS(=O)(=O)c3c(OC)cccc3OC)noc2cc1Nc1cc(C(C)CCO)[nH]n1 (stereo not shown) [Example 88, N-(6-{[5-(4-hydroxybutan-2-yl)-1H-pyrazol-3-yl]amino}-5-methoxy-1,2-benzoxazol-3-yl)-2,6-dimethoxybenzene-1-sulfonamide]	27	378	> 13000	6020
COc1cc2c(NS(=O)(=O)c3c(OC)cccc3OC)noc2cc1Nc1cc(Cl)n[nH]1 [Example 92, N-{6-[(3-chloro-1H-pyrazol-5-yl)amino]-5-methoxy-1,2-benzoxazol-3-yl}-2,6-dimethoxybenzene-1-sulfonamide]	1.3	219	2100	867
COc1cc2c(NS(=O)(=O)c3c(OC)cccc3OC)noc2cc1Nc1cc(C2(C)CC2)n[nH]1 [Example 94, 2,6-dimethoxy-N-(5-methoxy-6-{[3-(1-methylcyclopropyl)-1H-pyrazol-5-yl]amino}-1,2-benzoxazol-3-yl)benzene-1-sulfonamide]	6.3	58.1	5740	193
COc1cc2c(NS(=O)(=O)c3cc4ccccc4cc3OC)noc2cc1Nc1cc(C2CC2)n[nH]1 [Example 95, N-{6-[(3-cyclopropyl-1H-pyrazol-5-yl)amino]-5-methoxy-1,2-benzoxazol-3-yl}-3-methoxynaphthalene-2-sulfonamide]	0.1	0.3	77	18.1
COc1cc(F)ccc1S(=O)(=O)Nc1noc2cc(Nc3cc(C4CC4)n[nH]3)c(F)c(OC)c12 [Example 97, N-{6-[(3-cyclopropyl-1H-pyrazol-5-yl)amino]-5-fluoro-4-methoxy-1,2-benzoxazol-3-yl}-4-fluoro-2-methoxybenzene-1-sulfonamide]	9.8	57.7	> 13000	795
COc1cccc(OC2CCC2)c1S(=O)(=O)Nc1noc2cc(Nc3cc(C4CC4)n[nH]3)c(F)c(OC)c12 [Example 98, 2-(cyclobutyloxy)-N-{6-[(3-cyclopropyl-1H-pyrazol-5-yl)amino]-5-fluoro-4-methoxy-1,2-benzoxazol-3-yl}-6-methoxybenzene-1-sulfonamide]	5.7	74.6	> 13000	3790
COc1cc(F)c(F)cc1S(=O)(=O)Nc1noc2cc(Nc3cc(C4CC4)n[nH]3)c(F)c(OC)c12 [Example 100, N-{6-[(3-cyclopropyl-1H-pyrazol-5-yl)amino]-5-fluoro-4-methoxy-1,2-benzoxazol-3-yl}-4,5-difluoro-2-methoxybenzene-1-sulfonamide]	21.4	86.6	> 13000	1060
